Results from patent publication US20070066526A1, “Method for reducing risk of and extent of injury due to stroke in hypertensive subjects” (priority 2005, published 2007).

Legend:
[1] = test system: δPKC; conditions: normotensive animals, sustained delivery; cited from earlier work
[2] = test system: Dahl salt-sensitive rats; assay: Laser Doppler flowmetry of cerebral blood flow in hypertensive Dahl rats; conditions: 11 weeks old, intraperitoneal injection 0.2 mg/kg, 25 min post-treatment vs baseline, mean±SEM
Experimental: Six week old Dahl salt-sensitive rats were placed on an 8% high-salt diet to induce hypertension. Cerebral brain flow (CBF) was measured at 11 weeks, 4 weeks following high-salt diet onset. A burr hole was drilled 1 mm posterior and 6 mm lateral to bregma, corresponding to the ischemic territory. A laser Doppler transducer probe (Laserflo) was affixed above the cortex using a stereotaxic frame (Harvard Apparatus, MA), and a baseline CBF was established over a period of 20-30 minutes (1 minute intervals), Tat control peptide (n=5) or δV1-1-Tat peptide (n=15) was injected by intraperitoneal injection (0.2 mg/kg in 1 mL) and cerebral brain flow was monitored for an additional 20-30 minutes. Cerebral brain flow was also measured in the sham control animals (n=4).
Analysis of changes in cerebral brain flow was performed by comparing the baseline flow-rate at 20 minutes, to the flow-rate at 25 minutes post-treatment in all animals. Results were expressed as both a scattergram of percent flow changes in individual animals, and the mean±SEM flow in each group. Statistical analysis between Tat and δV1-1-Tat treatment groups was performed using an unpaired t-test.

[3] = test system: hypertensive Dahl salt-sensitive rats; assay: Middle cerebral artery occlusion, infarct size by TTC staining in hypertensive Dahl rats; format: in vivo, rat
[4] = target: T1, εPKC (Rattus norvegicus, UniProt P09216); assay: Western blot of εPKC translocation in brain of Dahl hypertensive rats; conditions: sustained subcutaneous pump delivery, same blot reprobed
T1 sequence (P09216 1-737): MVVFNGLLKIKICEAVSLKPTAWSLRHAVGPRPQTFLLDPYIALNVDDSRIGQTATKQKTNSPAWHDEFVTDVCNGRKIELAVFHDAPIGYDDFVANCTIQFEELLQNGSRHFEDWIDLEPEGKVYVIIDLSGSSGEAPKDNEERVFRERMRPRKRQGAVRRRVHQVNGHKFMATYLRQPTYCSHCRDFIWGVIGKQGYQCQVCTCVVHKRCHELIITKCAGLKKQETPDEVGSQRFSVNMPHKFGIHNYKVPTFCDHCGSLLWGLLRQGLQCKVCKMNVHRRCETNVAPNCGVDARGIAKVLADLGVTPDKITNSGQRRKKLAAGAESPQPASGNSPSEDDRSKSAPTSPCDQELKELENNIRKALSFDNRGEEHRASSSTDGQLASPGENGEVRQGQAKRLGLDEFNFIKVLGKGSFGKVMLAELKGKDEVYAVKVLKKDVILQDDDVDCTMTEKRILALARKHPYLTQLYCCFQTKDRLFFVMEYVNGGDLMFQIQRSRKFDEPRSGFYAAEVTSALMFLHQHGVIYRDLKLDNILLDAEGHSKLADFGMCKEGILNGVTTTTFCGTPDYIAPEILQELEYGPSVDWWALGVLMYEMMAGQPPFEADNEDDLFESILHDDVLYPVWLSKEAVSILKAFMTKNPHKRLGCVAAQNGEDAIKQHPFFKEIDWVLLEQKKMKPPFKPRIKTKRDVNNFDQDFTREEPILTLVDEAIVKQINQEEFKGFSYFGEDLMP

[5] = target: δPKC (Rattus norvegicus, UniProt P09215); assay: Western blot of δPKC translocation (soluble to membrane fraction) in brain of Dahl hypertensive rats; conditions: sustained subcutaneous pump delivery 4-6 weeks, n=3
Sequence of δPKC (Rattus norvegicus, UniProt P09215) (P09215 whole entry): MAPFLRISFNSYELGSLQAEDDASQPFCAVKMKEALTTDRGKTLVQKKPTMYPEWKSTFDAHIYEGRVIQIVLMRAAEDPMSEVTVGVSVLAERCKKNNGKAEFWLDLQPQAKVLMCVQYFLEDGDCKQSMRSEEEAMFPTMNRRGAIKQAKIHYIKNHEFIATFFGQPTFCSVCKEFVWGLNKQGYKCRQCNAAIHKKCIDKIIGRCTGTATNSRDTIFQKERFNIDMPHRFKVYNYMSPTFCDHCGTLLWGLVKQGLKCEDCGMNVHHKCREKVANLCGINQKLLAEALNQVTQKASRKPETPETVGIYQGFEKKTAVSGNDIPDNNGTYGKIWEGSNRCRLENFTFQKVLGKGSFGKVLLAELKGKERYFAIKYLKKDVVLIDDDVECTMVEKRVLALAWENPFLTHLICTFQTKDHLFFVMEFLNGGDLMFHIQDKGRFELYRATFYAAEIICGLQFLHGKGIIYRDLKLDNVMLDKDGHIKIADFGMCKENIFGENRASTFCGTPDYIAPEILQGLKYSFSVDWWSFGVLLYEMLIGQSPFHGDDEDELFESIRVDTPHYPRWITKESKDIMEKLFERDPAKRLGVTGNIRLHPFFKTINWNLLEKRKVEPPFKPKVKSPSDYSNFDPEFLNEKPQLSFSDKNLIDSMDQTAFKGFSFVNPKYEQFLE
Experimental: Dahl rats were implanted with pumps for subcutaneous delivering δV1-1-Tat or Tat control peptide for 4-6 weeks. δPKC activity in brain samples was assessed by determining the translocation of the enzyme from the soluble, cytosolic fraction, to the membrane-bound fraction, a standard marker for PKC activation (Kraft, A. S. et al., Nature, 301:621-3 (1983)).
The density of the bands was measured to assess PKC translocation, as a measure of δPKC activation.
Brains from Dahl hypertensive rats that received δV1-1-Tat or Tat peptide delivery for 4 weeks, starting at 11 weeks of age, were quickly isolated and frozen. Tissue fractionation was performed to collect soluble (cytosolic) and particulate (membrane) fractions, as previously described (Johnson, J. A. et al., Life Sci., 57:1027-38(1995)). 5 μg of protein from each fraction was used forwestern blot analysis using a rabbit anti-phospho-serine 643 δPKC antibody (Santa Cruz Biotechnology; 1:500) followed with an anti-rabbit secondary antibody (Amersham). Density of δPKC bands was measured to assess translocation of PKC from the cytosol to membrane fractions, a measure of activation (Kraft, A. S. et al., Nature, 301:621-3 (1983)). Blots were then reprobed with a rabbit anti-δPKC antibody (Santa Cruz Biotechnology; 1:500), to assess translocation of the δPKC isozyme. Statistical analysis was performed using students t-test.

Sequence: SFNSYELGSL (listed as Rattus norvegicus) [δV1-1]
- δPKC activity in the brain [1]: inhibits δPKC activity
- change in cerebral blood flow from baseline [2]: 12%
- reduction of infarct size compared with Tat controls ([3]; 90 min MCA occlusion, 24 h reperfusion, chronic subcutaneous pump delivery, animals without hemorrhage): 25%
- infarct size (relative stroke area) ([3]; 90 min MCA occlusion, 24 h reperfusion, chronic subcutaneous pump delivery, animals without hemorrhage, n=6-7 per group): 30±4%

Sequence: YGRKKRRQRRR [Tat]
- εPKC activation, percent translocation [4]: 46±5 % translocation
- change in cerebral blood flow from baseline [2]: −5±9%
- infarct size (relative stroke area) ([3]; rat, in vivo, sc): 39±3%
- δPKC activation, percent translocation [5]: 49±1 % translocation
